Like-named read-outs stand apart in the source and are kept apart here. One block for each molecule: values may come before it.
Target: T1, mAChR M1 (UniProt P11229)
T1 sequence (P11229 1-460): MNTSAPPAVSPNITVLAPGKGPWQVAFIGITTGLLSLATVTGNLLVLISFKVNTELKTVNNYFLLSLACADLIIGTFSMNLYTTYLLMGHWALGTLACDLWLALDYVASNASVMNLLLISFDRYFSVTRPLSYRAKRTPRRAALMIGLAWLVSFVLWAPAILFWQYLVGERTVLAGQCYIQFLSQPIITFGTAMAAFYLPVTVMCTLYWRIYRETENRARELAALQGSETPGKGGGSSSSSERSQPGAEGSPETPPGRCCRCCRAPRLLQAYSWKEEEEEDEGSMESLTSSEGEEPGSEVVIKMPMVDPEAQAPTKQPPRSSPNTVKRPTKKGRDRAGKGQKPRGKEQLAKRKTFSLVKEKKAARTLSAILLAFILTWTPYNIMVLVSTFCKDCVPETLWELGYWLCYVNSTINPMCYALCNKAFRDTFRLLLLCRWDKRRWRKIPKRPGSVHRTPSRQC
Assay: mAChR M1 cell-based functional assay (calcium mobilization, antagonist mode)
From the text: Chinese hamster ovary (CHO-K1) cells stably expressing rat (r)M1 were purchased from the American Type Culture Collection and cultured according to their indicated protocol. CHO cells stably expressing human (h)M2, hM3, and hM5 were described previously (Levey, et al., 1991); hM1 and hM4 cDNAs were purchased from Missouri S&T cDNA Resource; rM4 cDNA was provided by T. I. Bonner (National Institutes of Health, Bethesda, Md.). rM2 and rM3 were cloned from a rat brain cDNA library and sequence verified. hM1, rM2, rM3, hM4, and rM4 cDNAs were used to stably transfect CHO-K1 cells purchased from the American Type Culture Collection using Lipofectamine-2000. To make stable rM2, hM2, rM3, hM4, and rM4 cell lines for use in calcium mobilization assays, these cells also were stably transfected with a chimeric G-protein (Gqi5) (provided by B. R. Conklin, University of California, San Francisco) using Lipofectamine 2000. rM1, hM1, rM3, hM3, rM5, and hM5 cells were grown in Ham's F-12 medium containing 10% heat-inactivated fetal bovine serum (FBS), 20 mM HEPES, and 50 μg/mL G418 sulfate. rM2-Gqi5, hM2-Gqi5, and hM4-Gqi5 cells were grown in the same medium also containing 500 μg/mL Hygromycin B. Stable rM4-Gqi5 cells were grown in DMEM containing 10% heat-inactivated FBS, 20 mM HEPES, 400 μg/mL G418 sulfate, and […].
For high throughput measurement of antagonist inhibited increases in intracellular calcium, CHO-K1 cells stably expressing muscarinic receptors were plated in growth medium lacking G418 and hygromycin at 15,000 cells/20 μL/well in Greiner 384-well black-walled, tissue culture (TC)-treated, clear-bottom plates (VWR). Cells were incubated overnight at 37° C. and 5% CO2. The next day, cells were washed using an ELX 405 (BioTek) with four washes (80 μL) of assay buffer then aspirated to 20 μL. Next, 20 μL of 16 μM Fluo-4/acetoxymethyl ester (Invitrogen, Carlsbad, Calif.) prepared as a 2.3 mM stock in DMSO and mixed in a 1:1 ratio with 10% (w/v) Pluronic F-127 and diluted in assay buffer was added to the wells and the cell plates were incubated for 50 min at 37° C. and 5% CO2. Dye was removed by washing with the ELX 405 (four 80 μL washes of assay buffer) then aspirated to 20 μL. Compound master plates were formatted in an 11 point CRC format (1:3 dilutions) in 100% DMSO with a starting concentration of 10 mM using the BRAVO liquid handler (Agilent). Test compound CRCs were then transferred to daughter plates (240 nL) using the Echo acoustic plate reformatter (Labcyte, Sunnyvale, Calif.) and then diluted into assay buffer (40 μL) to a 2× stock using a Thermo Fisher Combi (Thermo Fisher Scientific, Waltham, Mass.).
Calcium flux was measured using the Functional Drug Screening System (FDSS) 6000 (Hamamatsu Corporation, Tokyo, Japan) as an increase in the fluorescent static ratio. Compounds were applied to cells (20 μL, 2×) using the automated system of the FDSS 6000 at 4 s into the 300 s protocol and the data were collected at 1 Hz. At 144 s into the 300 s protocol, 10 μL of an EC20 concentration of the muscarinic receptor agonist acetylcholine was added (5×), followed by the addition of 12 μL an EC80 concentration of acetylcholine at the 230 s time point (5×). Agonist activity was analyzed as a concentration-dependent increase in calcium mobilization upon compound addition. Positive allosteric modulator activity was analyzed as a concentration-dependent increase in the EC20 acetylcholine response. Antagonist activity was analyzed as a concentration-dependent decrease in the EC80 acetylcholine response. Concentration-response curves were generated using a four-parameter logistical equation in XLfit curve fitting software (IDBS, Bridgewater, N.J.) for Excel (Microsoft, Redmond, Wash.) or Prism (GraphPad Software, Inc., San Diego, Calif.).
The calcium mobilization assay was used to determine “potency”.

[1] = dash = baseline or about zero remaining activity (table footnote)
[2] = activity remaining at top dose of 30 μM test compound, as percentage of the response to an approx. EC80 concentration of ACh
[3] = concentration of antagonist decreasing calcium flux by 50%; EC80 acetylcholine response; CHO-K1 cells expressing mAChR M1; read-out: Potency (IC50)

SMILES: Cc1cc2c(S(=O)(=O)N3CC(C(=O)N4CC5CN(c6ccncc6)CC5C4)C3)cccc2cn1 (centres unmarked) [B60]
Remaining Activity (%) [1]: — (Unless otherwise indicated with a numerical value, the percent remaining activity is baseline or about zero, i.e. as indicated by “—”)

SMILES: COc1ccc(S(=O)(=O)N2CC(C(=O)N3CCN(c4ccncc4)CC3)C2)cn1 [B38]
Remaining Activity (%) [2]: 23%
IC50 [3]: > 10000 nM

SMILES: O=C(C1CN(S(=O)(=O)c2ccc(N3CCOCC3)nc2)C1)N1CCN(c2ccncc2)CC1 [B74]
Remaining Activity (%) [2]: ≧80%
IC50 [3]: > 10000 nM

SMILES: CC(C)(C)CS(=O)(=O)N1CC(C(=O)N2CC3CN(c4ccncc4)CC3C2)C1 (centres unmarked) [B55]
Remaining Activity (%) [2]: 56%
IC50 (read-out: Potency (IC50); concentration of antagonist decreasing calcium flux by 50%; EC80 acetylcholine response; CHO-K1 cells expressing mAChR M1): > 10000 nM

SMILES: Cc1nc(-c2cccc(S(=O)(=O)N3CC(C(=O)N4CCN(c5ccncc5)CC4)C3)c2)no1 [B71]
Remaining Activity (%) [2]: ≧80%
IC50 [3]: > 10000 nM

SMILES: Cn1ccc2cc(S(=O)(=O)N3CC(C(=O)N4CCN(c5ccncc5)CC4)C3)ccc21 [B50]
Remaining Activity (%) [2]: 59%
IC50 [3]: > 10000 nM

SMILES: O=C(C1CN(S(=O)(=O)c2ccc(OC(F)F)cc2)C1)N1CCN(c2ccncc2)CC1 [B63]
Remaining Activity (%) [2]: ≧80%
IC50 [3]: > 10000 nM

SMILES: O=C(C1CN(S(=O)(=O)c2cccc3cnccc23)C1)N1CCc2cccnc2C1 [B51]
Remaining Activity (%) [2]: 60%
IC50 [3]: > 10000 nM

SMILES: O=C(C1CN(S(=O)(=O)c2ccc3ncccc3c2)C1)N1CCN(c2ccncc2)CC1 [B15]
Remaining Activity (%) [1]: — (Unless otherwise indicated with a numerical value, the percent remaining activity is baseline or about zero, i.e. as indicated by “—”)

SMILES: O=C(C1CN(S(=O)(=O)c2ccc(C(F)(F)F)nc2)C1)N1CCN(c2ccncc2)CC1 [B41]
Remaining Activity (%) [2]: 37%
IC50 [3]: > 10000 nM

SMILES: O=C(C1CN(S(=O)(=O)c2ccc3ccccc3c2)C1)N1CCN(c2ccncc2)CC1 [B77]
Remaining Activity (%) [2]: ≧80%
IC50 [3]: > 10000 nM

SMILES: O=C(C1CN(S(=O)(=O)c2cccc(Cl)c2Cl)C1)N1CC2CN(c3ccncc3)CC2C1 (centres unmarked) [B58]
Remaining Activity (%) [1]: — (Unless otherwise indicated with a numerical value, the percent remaining activity is baseline or about zero, i.e. as indicated by “—”)

SMILES: CN1CCN(C(=O)C2CN(S(=O)(=O)c3cccc4cnccc34)C2)CC1 [B80]
Remaining Activity (%) [2]: ≧80%
IC50 [3]: > 10000 nM

SMILES: O=C(C1CN(S(=O)(=O)c2ccc3[nH]c(=O)sc3c2)C1)N1CCN(c2ccncc2)CC1 [B70]
Remaining Activity (%) [2]: ≧80%
IC50 [3]: > 10000 nM

SMILES: O=C(C1CN(S(=O)(=O)C2CCCCC2)C1)N1CC2CN(c3ccncc3)CC2C1 (centres unmarked) [B86]
Remaining Activity (%) [2]: ≧80%
IC50 [3]: > 10000 nM

Now from value to molecule, other results behind:

Remaining Activity (%) [2]: ≧80%
IC50 [3]: > 10000 nM
SMILES: Cn1cc(S(=O)(=O)N2CC(C(=O)N3CC4CN(c5ccncc5)CC4C3)C2)cn1 (centres unmarked) [B83]

IC50 [3]: 780 nM
SMILES: O=C(C1CN(S(=O)(=O)c2cccc3cnc(Cl)cc23)C1)N1CCN(c2ccncc2)CC1 [B19]
Remaining Activity (%) [1]: — (Unless otherwise indicated with a numerical value, the percent remaining activity is baseline or about zero, i.e. as indicated by “—”)

IC50 [3]: 3500 nM
SMILES: O=C(C1CN(S(=O)(=O)c2cccc3ncccc23)C1)N1CC2CN(c3ccncc3)CC2C1 (centres unmarked) [B52]
Remaining Activity (%) [1]: — (Unless otherwise indicated with a numerical value, the percent remaining activity is baseline or about zero, i.e. as indicated by “—”)

IC50 [3]: 95 nM
SMILES: O=C(C1CN(S(=O)(=O)c2ccc3c(c2)CCO3)C1)N1CCN(c2ccncc2)CC1 [B5]
Remaining Activity (%) [1]: — (Unless otherwise indicated with a numerical value, the percent remaining activity is baseline or about zero, i.e. as indicated by “—”)

IC50 [3]: 350 nM
SMILES: O=C(C1CN(S(=O)(=O)c2ccc(Cl)nc2)C1)N1CCN(c2ccncc2)CC1 [B12]
Remaining Activity (%) [1]: — (Unless otherwise indicated with a numerical value, the percent remaining activity is baseline or about zero, i.e. as indicated by “—”)

IC50 [3]: 640 nM
SMILES: O=C(C1CN(S(=O)(=O)c2cccc3c(Cl)nccc23)C1)N1CCN(c2ccncc2)CC1 [B17]
Remaining Activity (%) [1]: — (Unless otherwise indicated with a numerical value, the percent remaining activity is baseline or about zero, i.e. as indicated by “—”)

IC50 [3]: 950 nM
SMILES: O=C(C1CN(S(=O)(=O)c2ccc3c(c2)OCO3)C1)N1CC2CN(c3ccncc3)CC2C1 (centres unmarked) [B57]
Remaining Activity (%) [1]: — (Unless otherwise indicated with a numerical value, the percent remaining activity is baseline or about zero, i.e. as indicated by “—”)

IC50 [3]: 390 nM
SMILES: Cc1cnccc1N1CCN(C(=O)C2CN(S(=O)(=O)c3cccc4cnccc34)C2)CC1 [B13]
Remaining Activity (%) [1]: — (Unless otherwise indicated with a numerical value, the percent remaining activity is baseline or about zero, i.e. as indicated by “—”)

IC50 [3]: 620 nM
SMILES: O=C(C1CN(S(=O)(=O)c2cccc(Cl)c2Cl)C1)N1CCN(c2ccncc2)CC1 [B16]
Remaining Activity (%) [1]: — (Unless otherwise indicated with a numerical value, the percent remaining activity is baseline or about zero, i.e. as indicated by “—”)

IC50 [3]: 1500 nM
SMILES: O=C(C1CN(S(=O)(=O)c2cccc(F)c2)C1)N1CCN(c2ccncc2)CC1 [B23]
Remaining Activity (%) [1]: — (Unless otherwise indicated with a numerical value, the percent remaining activity is baseline or about zero, i.e. as indicated by “—”)
